The conditions of data set [1]: 101.33 kPa, Liquid, Vibrating tube method.
Data set [2] in a line: molar heat capacity at constant pressure. Particulars: 101.33 kPa, Liquid, Small sample (50 mg) DSC.
Data set [3] in a line: excess molar enthalpy (molar enthalpy of mixing); xn = mol fraction of the nth substance listed. Conditions: 303.15 K, 101.3 kPa, Liquid.

Data on six compounds can be found in the NIST ThermoML archive (doi:10.1016/j.jct.2008.10.002).

± gives the expanded uncertainty stated by the source.

A word on the mass density: it is mass per unit of volume. As for `CCCCn1cc[n+](C)c1.COS(=O)(=O)[O-]` [1-butyl-3-methylimidazolium methyl sulfate], the mass density was 1210.7 ± 0.4 kg/m3 in data set [1] (293.15 K); 1207.4 ± 0.4 kg/m3 in data set [1] (298.15 K); 1204.1 ± 0.4 kg/m3 in data set [1] (303.15 K); 1200.8 ± 0.4 kg/m3 in data set [1] (308.15 K); 1197.5 ± 0.4 kg/m3 in data set [1] (313.15 K); 1194.2 ± 0.4 kg/m3 in data set [1] (318.15 K). In addition, the “molar heat capacity at constant pressure” value is on record as 413.7 ± 6.4 J/K/mol in data set [2] (293.15 K); 416.2 ± 6.4 J/K/mol in data set [2] (298.15 K); 418.5 ± 6.5 J/K/mol in data set [2] (303.15 K); 420.9 ± 6.5 J/K/mol in data set [2] (308.15 K); 423.3 ± 6.6 J/K/mol in data set [2] (313.15 K); 425.6 ± 6.6 J/K/mol in data set [2] (318.15 K).

With `CCCCn1cc[n+](C)c1.O=S(=O)([O-])C(F)(F)F` [1-butyl-3-methylimidazolium trifluoromethanesulfonate], the mass density in data set [1] (293.15 K) is 1301.6 ± 0.5 kg/m3; in data set [1] (298.15 K), 1297.6 ± 0.5 kg/m3; in data set [1] (303.15 K) it was 1293.7 ± 0.5 kg/m3; in data set [1] (308.15 K) it was 1289.7 ± 0.5 kg/m3; in data set [1] (313.15 K), 1285.8 ± 0.5 kg/m3; in data set [1] (318.15 K), 1281.9 ± 0.5 kg/m3. The “molar heat capacity at constant pressure” value in data set [2] (293.15 K) came out at 421.6 ± 6.5 J/K/mol; in data set [2] (298.15 K) it was 424.1 ± 6.6 J/K/mol; in data set [2] (303.15 K) it was 426.7 ± 6.6 J/K/mol; in data set [2] (308.15 K), 429.5 ± 6.7 J/K/mol; in data set [2] (313.15 K), 432.4 ± 6.7 J/K/mol; in data set [2] (318.15 K), 435.5 ± 6.7 J/K/mol.

As for `CCCC[n+]1cccc(C)c1.F[B-](F)(F)F` [1-butyl-3-methylpyridinium tetrafluoroborate] + O, the excess molar enthalpy in data set [3] (x1 = 0.1023) turned out to be 0.261 ± 0.00574 kcal/mol; in data set [3] (x1 = 0.2013), 0.421 ± 0.00884 kcal/mol; in data set [3] (x1 = 0.3036), 0.514 ± 0.0108 kcal/mol; in data set [3] (x1 = 0.4004) it was 0.554 ± 0.0115 kcal/mol; in data set [3] (x1 = 0.4891), 0.543 ± 0.0112 kcal/mol; in data set [3] (x1 = 0.5761), 0.497 ± 0.0105 kcal/mol. Further, the values for the excess molar enthalpy in data set [3] (x1 = 0.6659) and in data set [3] (x1 = 0.8154) were 0.428 ± 0.00908 kcal/mol and 0.256 ± 0.0055 kcal/mol, respectively.

As to `CCOS(=O)(=O)[O-].CCn1cc[n+](C)c1` [1-ethyl-3-methylimidazolium ethyl sulfate], the mass density is 1240.6 ± 0.4 kg/m3 in data set [1] (293.15 K); 1237.2 ± 0.4 kg/m3 in data set [1] (298.15 K); 1233.8 ± 0.4 kg/m3 in data set [1] (303.15 K); 1230.4 ± 0.4 kg/m3 in data set [1] (308.15 K); 1227 ± 0.4 kg/m3 in data set [1] (313.15 K); 1223.7 ± 0.4 kg/m3 in data set [1] (318.15 K). The “molar heat capacity at constant pressure” value in data set [2] (293.15 K) is given as 392.2 ± 6.1 J/K/mol; in data set [2] (298.15 K), 394.4 ± 6.1 J/K/mol; in data set [2] (303.15 K), 396.8 ± 6.1 J/K/mol; in data set [2] (308.15 K) it was 399.3 ± 6.2 J/K/mol; in data set [2] (313.15 K), 402 ± 6.2 J/K/mol; in data set [2] (318.15 K) it was 404.9 ± 6.3 J/K/mol.

With `CCn1cc[n+](C)c1.O=S(=O)([O-])C(F)(F)F` [1-ethyl-3-methylimidazolium trifluoromethanesulfonate], the mass density came to 1389.5 ± 0.6 kg/m3 in data set [1] (293.15 K); 1385.3 ± 0.6 kg/m3 in data set [1] (298.15 K); 1381.1 ± 0.6 kg/m3 in data set [1] (303.15 K); 1376.9 ± 0.6 kg/m3 in data set [1] (308.15 K); 1372.7 ± 0.6 kg/m3 in data set [1] (313.15 K); 1368.6 ± 0.6 kg/m3 in data set [1] (318.15 K). Moreover, the “molar heat capacity at constant pressure” value in data set [2] (293.15 K) was 361.1 ± 5.6 J/K/mol; in data set [2] (298.15 K) it was 363.2 ± 5.6 J/K/mol; in data set [2] (303.15 K) it was 365.3 ± 5.7 J/K/mol; in data set [2] (308.15 K) it was 367.4 ± 5.7 J/K/mol; in data set [2] (313.15 K), 369.6 ± 5.7 J/K/mol; in data set [2] (318.15 K) it was 371.8 ± 5.8 J/K/mol.

On to `O` [water], for which the mass density in data set [1] (308.15 K) amounted to 994.1 ± 0.3 kg/m3. Further, the “molar heat capacity at constant pressure” value in data set [2] (293.15 K) is listed as 75.4 ± 1.2 J/K/mol; in data set [2] (298.15 K) it was 75.3 ± 1.2 J/K/mol; in data set [2] (303.15 K), 75.3 ± 1.2 J/K/mol; in data set [2] (308.15 K) it was 75.2 ± 1.2 J/K/mol; in data set [2] (313.15 K), 75.2 ± 1.2 J/K/mol; in data set [2] (318.15 K) it was 75.3 ± 1.2 J/K/mol.
